Experimental data reported in US5182387A, “Bis-dibenzoazepine compounds” (Merrell Dow Pharmaceuticals Inc., priority 1991, dated 1993).
≈ marks a conversion by molar mass, not a printed value. Where a name gives a salt, the structure may show the parent alone. Read-outs that look alike come from different tables or passages of the source.

Columns and labels:
[1] = tested on: chloroquine-sensitive strain of Plasmodium falciparum (clone D6); experiment: antimalarial activity against chloroquine-sensitive strain of Plasmodium falciparum (clone D6); assay type: cell-based
Experimental: As shown by Table 1, the compounds of the present invention have antimalarial activity on their own without other antimalarial agents. This antimalarial activity can be tested using a number of methods. For example, the compounds of formula 1 listed in Table 1 were tested for antimalarial activity against chloroquine-sensitive strain of Plasmodium falciparum (clone D6).
The methods for the growth of the malaria parasite, the testing of drugs for antimalarial effects and the clone are described in Science 242, 1301-1303 1988.

[2] = tested on: multidrug resistant Plasmodium falciparum clone W-2; experiment: antimalarial activity using multidrug resistant Plasmodium falciparum clone W-2; assay type: cell-based; details: read-out: IC50, ng/ml CLONE W-2
Experimental: (§1) Referring to Table 2, the antimalarial activity of compounds of formula 1 were tested using the multidrug resistant Plasmodium falciparum clone W-2. The methods for the growth of the malaria parasite, the testing of drugs for antimalarial effects and the clone are described in Science 242, 1301-1303 1988.

[3] = tested on: multidrug resistant Plasmodium falciparum clone W-2; experiment: reversal of the chloroquine resistance in clone W-2; assay type: cell-based
Experimental: as §1

[4] = tested on: chloroquine-resistant Plasmodium falciparum; experiment: synergistic effect with chloroquine, isobologram analysis; assay type: cell-based; details: chloroquine-resistant P. falciparum, data not shown
Experimental: Isobologram analysis was carried out according to the method of Martin, et al., (1987) Science 235, 899-901 and Berenbaum, (1978) Journal of Infectious Diseases 137, 122-130 (data not shown).

Plasmodium falciparum = details: as described in Science 242, 1301-1303 1988; cited from earlier work
[5] = chloroquine-sensitive clone D6, read-out: IC50, ng/ml CLONE D6
[6] = 50% reversal of the chloroquine resistance in clone W-2, read-out: Conc. in ng/ml for 50% Reversal of chloroquine
[7] = D6, read-out: IC50, ng/ml CLONE D6

SMILES | IC50 [1, 5] [ng/mL] | IC50 [2] [ng/mL] | EC50 [3, 6] [ng/mL] | synergistic effect with antimalarial agents [4] | IC50 [1, 7] [ng/mL] | utility in reversing chloroquine resistance (Plasmodium falciparum) | EC50 ([3]; read-out: Conc. in ng/ml for 50% Reversal of chloroquine) [ng/mL]
CN(CCCCCCN(C)CCCN1c2ccccc2CCc2ccccc21)CCCN1c2ccccc2CCc2ccccc21 [Example 6, N,N'-Bis[3-(10,11-dihydro-5H-dibenzo[b,f]azepino)propyl]-N,N'-dimethylhexanediamine Fumarate] | 210 | 140 | 52 | – | – | – | –
c1ccc2c(c1)CCc1ccccc1N2CCCN1CCN(CCCN2c3ccccc3CCc3ccccc32)CC1 [Example 9, 1,4-Bis[3-(10,11-dihydro-5H-dibenzo[b,f]azepino)propyl]piperazine Maleate] | – | > 5000 | > 200 | – | – | – | –
c1ccc2c(c1)CCc1ccccc1N2CCCNCCCCNCCCN1c2ccccc2CCc2ccccc21 [Example 8, N,N'-Bis[3-(10,11-dihydro-5H-dibenzo[b,f]azepino)propyl]butanediamine Maleate] | 48 | 110 | 105 | – | – | – | –
CN(CCCN1c2ccccc2CCc2ccccc21)CCN(C)CCCN1c2ccccc2CCc2ccccc21 [Example 2, N,N'-Bis[3-(10,11-dihydro-5H-dibenzo[b,f]azepino)propyl]-N,N'-dimethylethanediamine Maleate] | – | 1510 | > 200 | – | – | – | –
CN(CCCCN(C)CCCN1c2ccccc2CCc2ccccc21)CCCN1c2ccccc2CCc2ccccc21 [Example 4, N,N'-Bis[3-(10,11-dihydro-5H-dibenzo[b,f]azepino)propyl]-N,N'-dimethylbutanediamine Fumarate] | 240 | 56 | 14 | synergistic effect with chloroquine | – | – | –
CCN(CC)CCCC(C)Nc1ccnc2cc(Cl)ccc12 (centres unmarked) [chloroquine, reference compound] | – | 160 (≈ 0.5 µM) | – | – | 7 (≈ 0.0219 µM) | – | –
CN(CCCCCN(C)CCCN1c2ccccc2CCc2ccccc21)CCCN1c2ccccc2CCc2ccccc21 [Example 5, N,N'-Bis[3-(10,11-dihydro-5H-dibenzo[b,f]azepino)propyl]-N,N'-dimethylpentanediamine Maleate] | – | 180 | 56 | – | – | – | –
CN(CCCN(C)CCCN1c2ccccc2CCc2ccccc21)CCCN1c2ccccc2CCc2ccccc21 [Example 3, N,N'-Bis[3-(10,11-dihydro-5H-dibenzo[b,f]azepino)propyl]-N,N'-dimethylpropanediamine Maleate] | – | 385 | 72 | – | – | – | –
CNCCCN1c2ccccc2CCc2ccccc21 [desipramine, reference compound] | – | 300 (≈ 1.13 µM) | – | – | 15000 (≈ 56.3 µM) | shown to have utility in reversing chloroquine resistance | 35
CN(CCCN1c2ccccc2CCc2ccccc21)CC(=O)N(C)CCCN1c2ccccc2CCc2ccccc21 [Example 1, N,N'-Bis[3-(10,11-dihydro-5H-dibenzo[b,f]azepino)propyl]-N,N'-dimethylacetamide Oxalate] | – | 3570 | > 200 | – | – | – | –
